Earlier results, collected in patent publication US20260108469A1, “COMPOSITIONS COMPRISING WATER INSOLUBLE DRUGS AND METHODS OF PRODUCING AND USING SAME” (priority 2023, published 2026).

Compound	solubility in water-based solutions	solubility in water (water) [mg/mL]
CCc1c2c(nc3ccc(O)cc13)-c1cc3c(c(=O)n1C2)COC(=O)[C@]3(O)CC [SN-38, 7-ethyl-10-hydroxycamptothecin]	not soluble in water-based solutions	–
CVKRGLKLRHVRPRVTRMDV (cell penetrating peptide (CPP)) [20 amino acid cell penetrating peptide, DPV1047 with an added N-terminal Cys]	–	> 500
